Data: patent US20240199651A1, “ANTIBACTERIAL COMPOUNDS” (JANSSEN SCIENCES IRELAND UNLIMITED COMPANY, priority 2021, published 2024)
Like-named read-outs stand apart in the source and are kept apart here.

Tests used:
[1] = Mitochondrial toxicity (Glu/Gal) assay; format: cell-based; conditions: for Score: mitotoxicity score, Glu/Gal assay; for Δ IC50, glu/IC50, gal: ratio IC50 glu / IC50 gal
Text: The compounds of the invention/examples may have advantages associated with in vitro potency, kill kinetics (i.e. bactericidal effect) in vitro, PK properties, food effect, safety/toxicity (including liver toxicity, coagulation, 5-LO oxygenase), metabolic stability, Ames II negativity, MNT negativity, aqueous based solubility (and ability to formulate) and/or cardiovascular effect e.g. on animals (e.g. anesthetized guinea pig). Data that is generated/calculated may be obtained using standard methods/assays, for instance that are available in the literature or which may be performed by a supplier (e.g. Microsomal Stability Assay—Cyprotex, Mitochondrial toxicity (Glu/Gal) assay—Cyprotex, as well as literature CYP cocktail inhibition assays). GSH can be measured (reactive metabolites, glucuronidation) to observe if a dihydrodiol is observed by LCMS (fragmentation ions), which would correspond to a dihydroxylation on the core heterocycle.

[2] = test system: Mycobacterium tuberculosis strain EH4.0 expressing green-fluorescent protein (GFP); test: microbe, parasite or virus in culture; format: cell-based; conditions: Test 1 (and/or Test 2); M. tuberculosis
[3] = Chemical stability testing (LCMS); format: physicochemical; conditions: 30 µM
Protocol: • Add 3 μl of a 10 mM DMSO stock solution to 1 ml of the following solvents in a 1.5 ml HPLC vial. • DMSO (reference solution) • H2O/Acetonitril 1/1 (assay solution) • 0.1N HCl/Acetonitril 1/1 (assay solution) • Mix well, […] LCMS • Compare the chromatograms of the two assay solutions with the reference solution and report the additional peaks as degradation peaks

[4] = galactose medium (Glu/Gal mitotoxicity assay), read-out: IC50, gal
[5] = glucose medium (Glu/Gal mitotoxicity assay), read-out: IC50, glu

Row | SMILES | IC50 [1, 4] [µM] | IC50 [1, 5] [µM] | Score [1] | Δ IC50, glu/IC50, gal [1] | IC50 ([1]; read-out: IC50, gal) [µM] | IC50 ([1]; read-out: IC50, glu) [µM] | other results
1 | CCc1nc2ncc(Cl)cn2c1C(=O)NCc1ccc(-c2nc3n(n2)CCN(S(=O)(=O)C(F)(F)F)C3)c(F)c1 [Compound 4] | > 100 | > 100 | – | – | – | – | pIC50 [2]: 7.90
2 | O=C(NCc1ccc(-c2nc3n(n2)CCN(S(=O)(=O)C(F)(F)F)C3)c(F)c1)c1c(C(F)(F)F)nc2ccccn12 [Compound 6] | – | – | [x]1 | 0.66 | 134 | 88.5 | chemical stability, % by LCMS ([3]; 48 h): 100%; chemical stability, % by LCMS ([3]; 48 h, pH 1.6): 100%
3 | CCc1nc2nc(C)c(Cl)cn2c1C(=O)NCc1ccc(-c2nc3n(n2)CCN(S(=O)(=O)C(F)(F)F)C3)cc1 [Compound 8] | 41.7 | 51.2 | [x]1 | 1.23 | – | – | pIC50 [2]: 7.58
4 | CCc1nc2cc(OC)c(Cl)cn2c1C(=O)NCc1ccc(-c2nc3n(n2)CCN(S(=O)(=O)C(F)(F)F)C3)c(F)c1 [Compound 10] | – | – | – | – | > 200 | > 200 | chemical stability, % by LCMS ([3]; 72 h): 97.03%; chemical stability, % by LCMS ([3]; 72 h, pH 1.6): 100%
5 | CCc1nc2nc(N)c(Cl)cn2c1C(=O)NCc1ccc(-c2nc3n(n2)CCN(S(=O)(=O)C(F)(F)F)C3)c(F)c1 [Compound 12] | – | – | – | – | – | – | chemical stability, % by LCMS ([3]; 72 h): 96.14%; chemical stability, % by LCMS ([3]; 72 h, pH 1.6): 97.06%
6 | CCc1nc2cc(N)c(Cl)cn2c1C(=O)NCc1ccc(-c2nc3n(n2)CCN(S(=O)(=O)C(F)(F)F)C3)c(F)c1 [Compound 14] | – | – | – | – | – | – | chemical stability, % by LCMS ([3]; 72 h): 100%; chemical stability, % by LCMS ([3]; 72 h, pH 1.6): 100%
7 | CCc1nc2ncc(C)cn2c1C(=O)NCc1ccc(N2CCN(c3nc4n(n3)CCN(S(=O)(=O)C(F)(F)F)C4)CC2)cc1 [Compound 70] | – | – | – | – | > 50 | > 50 | –
8 | CCc1nc2ncc(C)cn2c1C(=O)NCc1csc(-c2nc3n(n2)CCN(S(=O)(=O)C(F)(F)F)C3)n1 [Compound 73] | – | – | – | – | > 200 | > 200 | –
9 | CCc1nc2ncc(C)cn2c1C(=O)NCc1nc(-c2nc3n(n2)CCN(S(=O)(=O)C(F)(F)F)C3)cs1 [Compound 75] | – | – | – | – | > 200 | > 200 | –
10 | CCc1nc2ncc(C)cn2c1C(=O)NCc1nnc(-c2nc3n(n2)CCN(S(=O)(=O)C(F)(F)F)C3)s1 [Compound 76] | – | – | – | – | > 200 | > 200 | –
11 | CCc1nc2ncc(Cl)cn2c1C(=O)NCc1cnc(-c2nc3n(n2)CCN(S(=O)(=O)C(F)(F)F)C3)c(F)c1 [Compound 77] | – | – | – | – | > 200 | > 200 | –
12 | CCc1nc2cc(N)c(Cl)cn2c1C(=O)NCc1cnc(-c2nc3n(n2)CCN(S(=O)(=O)C(F)(F)F)C3)c(F)c1 [Compound 78] | – | – | – | – | > 200 | > 200 | –
13 | CCc1nc2ncc(C)cn2c1C(=O)NC(C)(C)c1ccc(-c2nc3n(n2)CCN(S(=O)(=O)C(F)(F)F)C3)cc1 [Compound 83] | – | – | [x]1 | 1.12 | 127 | 142 | –
14 | CCc1nc2ncc(C)cn2c1C(=O)NCc1ccc(-c2nn3c(c2OC)CN(S(=O)(=O)C(F)(F)F)CC3)cc1 [Compound 88] | – | – | – | – | – | – | AC50 [2]: 0.00866 µM
15 | CCc1nc2ncc(C)cn2c1C(=O)NCc1ccc(-c2cn3c(n2)CN(S(=O)(=O)C(F)(F)F)CC3)cc1 [Compound 89] | > 200 | > 200 | – | – | – | – | –
16 | CCc1nc2ncc(Cl)cn2c1C(=O)NCc1ccc(-c2cn3c(n2)CN(S(=O)(=O)C(F)(F)F)CC3)cc1 [Compound 90] | > 200 | > 200 | – | – | – | – | –
17 | CCc1nc2ncc(Cl)cn2c1C(=O)NCc1ccc(-c2cc3n(n2)CCN(S(=O)(=O)C(F)(F)F)C3)cc1 [Compound 91] | – | – | [x]3 | >12.85 | 15.6 | > 200 | –
18 | Cc1cnc2nc(C3CC3)c(C(=O)NCc3ccc(-c4cc5n(n4)CCN(S(=O)(=O)C(F)(F)F)C5)cc3)n2c1 [Compound 93] | > 200 | > 200 | – | – | – | – | –
19 | CCc1nc2ncc(C)cn2c1C(=O)NCc1cccc(Cc2cc3n(n2)CCN(S(=O)(=O)C(F)(F)F)C3)c1 [Compound 95] | – | – | [x]1 | >1.7 | 117 | > 200 | –
20 | CC(=O)N1CCn2nc(-c3ccc(CNC(=O)c4c(C5CC5)nc5ncc(C)cn45)cc3)cc2C1 [Compound 96] | > 200 | > 200 | – | – | – | – | –
21 | Cc1cnc2nc(C3CC3)c(C(=O)NCc3ccc(-c4nc5n(n4)CCN(S(=O)(=O)C(F)(F)F)C5)c(F)c3)n2c1 [Compound 97] | > 25 | > 25 | – | – | – | – | –
22 | Cc1cnc2nc(C3CC3)c(C(=O)NCc3ccc(-c4cc5n(n4)CCN(S(C)(=O)=O)C5)cc3)n2c1 [Compound 99] | > 200 | > 200 | – | – | – | – | –

Row | SMILES | IC50 [1, 4] [µM] | IC50 [1, 5] [µM] | Score [1] | Δ IC50, glu/IC50, gal [1] | IC50 ([1]; read-out: IC50, gal) [µM] | IC50 ([1]; read-out: IC50, glu) [µM] | other results
23 | Cc1cnc2nc(C3CC3)c(C(=O)NCc3ccc(-c4cc5n(n4)CCN(C)C5)cc3)n2c1 [Compound 100] | > 200 | > 200 | – | – | – | – | –
24 | COCCN1CCn2nc(-c3ccc(CNC(=O)c4c(C5CC5)nc5ncc(C)cn45)cc3)cc2C1 [Compound 101] | > 200 | > 200 | – | – | – | – | –
25 | Cc1cnc2nc(C3CC3)c(C(=O)NCc3ccc(-c4nn5c(c4C)CN(S(=O)(=O)C(F)(F)F)CC5)cc3)n2c1 [Compound 102] | – | – | [x]3 | >6.69 | 29.9 | > 200 | –
26 | O=C(NCc1ccc(-c2nc3n(n2)CCN(S(=O)(=O)C(F)(F)F)C3)cc1)c1c(C2CC2)nc2ncc(Cl)cn12 [Compound 103] | – | – | [x]0 | >1.3 | 38.6 | > 50 | –
27 | Cc1cnc2nc(C3CC3)c(C(=O)NCc3ccc(-c4cc5n(n4)CCN(CC(F)(F)F)C5)cc3)n2c1 [Compound 107] | – | – | [x]0 | >1.13 | 44.2 | > 50 | –
28 | Cc1cnc2nc(C3CC3)c(C(=O)NCc3ccc(-c4cc5n(n4)CCN(S(=O)(=O)CC(C)C)C5)cc3)n2c1 [Compound 108] | – | – | [x]0 | >1.29 | 38.6 | > 50 | –
29 | COCCS(=O)(=O)N1CCn2nc(-c3ccc(CNC(=O)c4c(C5CC5)nc5ncc(C)cn45)cc3)cc2C1 [Compound 109] | > 50 | > 50 | – | – | – | – | –
30 | CCc1nc2ncc(C)cn2c1C(=O)NCc1ccc(-c2nc3n(n2)CCN(S(=O)(=O)C(F)(F)F)C3)cc1 [Compound 110] | > 100 | > 100 | – | – | – | – | –
31 | O=C(NCc1ccc(-c2cn3c(n2)CN(S(=O)(=O)C(F)(F)F)CC3)cc1)c1c(C(F)(F)F)nc2ccccn12 [Compound 115] | – | – | – | >3.08 | 64.8 | > 200 | –
32 | O=C(NCc1ccc(-c2cn3c(n2)CN(S(=O)(=O)C(F)(F)F)CC3)cc1)c1c(C(F)F)nc2ccccn12 [Compound 116] | – | – | [x]3 | >9.96 | 20.1 | > 200 | –
33 | CCc1nc2ccc(Cl)cn2c1C(=O)NCc1ccc(-c2cn3c(n2)CN(S(=O)(=O)C(F)(F)F)CC3)cc1 [Compound 117] | > 50 | > 50 | – | – | – | – | –
34 | CCc1nc2ccc(Cl)cn2c1C(=O)NCc1ccc(-c2cc3n(n2)CCN(S(=O)(=O)C(F)(F)F)C3)cc1 [Compound 118] | – | – | [x]1 | >1.57 | 127 | > 200 | –
35 | O=C(NCc1ccc(-c2cc3n(n2)CCN(S(=O)(=O)C(F)(F)F)C3)cc1)c1c(C(F)(F)F)nc2ccccn12 [Compound 119] | – | – | [x]1 | >1.54 | 130 | > 200 | –
36 | O=C(NCc1ccc(-c2cc3n(n2)CCN(S(=O)(=O)C(F)(F)F)C3)cc1)c1c(C(F)F)nc2ccccn12 [Compound 120] | – | – | [x]3 | >8.01 | 25 | > 200 | –
37 | Cc1c(-c2ccc(CNC(=O)c3c(C(F)(F)F)nc4ccccn34)cc2)nn2c1CN(S(=O)(=O)C(F)(F)F)CC2 [Compound 121] | – | – | – | >4.31 | 46.4 | > 200 | –
38 | O=C(NCc1ccc(-c2nc3n(n2)CCN(S(=O)(=O)C(F)(F)F)C3)cc1)c1c(C(F)(F)F)nc2ccccn12 [Compound 122] | > 100 | > 100 | – | – | – | – | –
39 | Cc1cnc2nc(C3CC3)c(C(=O)NCc3cnc(-c4cc5n(n4)CCN(S(=O)(=O)C(F)(F)F)C5)c(F)c3)n2c1 [Compound 125] | > 200 | > 200 | – | – | – | – | –
40 | CCc1nc2ncc(C)cn2c1C(=O)NCc1ccc(-c2cc3n(n2)CCN(S(=O)(=O)C(F)(F)F)C3)cn1 [Compound 126] | > 200 | > 200 | – | – | – | – | –
41 | Cc1cnc2nc(C3CC3)c(C(=O)NCc3ccc(-c4cc5n(n4)CCN(S(=O)(=O)C(F)(F)F)C5)nc3)n2c1 [Compound 128] | > 200 | > 200 | – | – | – | – | –
42 | Cc1cnc2nc(C3CC3)c(C(=O)NCc3cnc(-c4nc5n(n4)CCN(S(=O)(=O)C(F)(F)F)C5)c(F)c3)n2c1 [Compound 130] | > 200 | > 200 | – | – | – | – | –
43 | CCc1nc2ncc(C)cn2c1C(=O)NCc1cnc(-c2cc3n(n2)CCN(S(=O)(=O)C(F)(F)F)C3)nc1 [Compound 131] | > 100 | > 100 | – | – | – | – | –
